This is an account of results in patent US8754233B2, “Pyrazolylbenzothiazole derivatives and their use as therapeutic agents” (Dermira (Canada), Inc., priority 2002, dated 2014).

One assay deals with K5P5 podocyte cell line. As to the kind of experiment: Survival assay in podocytes (PAN treatment, MTS). The assay is classed as cell-based, murine. The conditions noted are these: for IC50: Mus musculus, PAN treated, MTS; for % Survival: PAN treated K5P5 podocytes. The text has this:
The treatment of glomerular visceral epithelial cells (podocytes) with high concentrations of puromycin aminonucleoside (PAN) causes significant cytotoxic effects. An assessment of cell viability subsequent to a cytotoxic exposure can be judged qualitatively by examining changes in cell phenotype after staining with crystal violet or determined quantitatively by employing a cytotoxic assay using the soluble tetrazolium salt [3-(4,5-dimethylthiazol-2-yl)-5-(3-carboxymethoxyphenyl)-2-(4-sulfophenyl)-2H-tetrazolium, inner salt] (MTS). Such a system can be used to evaluate the survival effects that ILK compounds have on podocytes following exposure to PAN or other cytotoxic agents.
The cell line employed for the podocyte model was the murine K5P5. […] The cells should be propagate to a maximum of 20 passages.
The flasks were incubated at 37° C., 5% CO2 for 3 days.
The flasks were incubated at 37° C., 5% CO2 for 4 days.
Cells were trypsinized (0.25%), collected from the tissue culture flasks centrifuged, resuspended and counted. […] The flasks were incubated at 37° C., 5% CO2 for 3 days.
10 μl of this 10× compound solution is added to the 80 μl of cells already present in the 96-well plates. For cell undergoing cytotoxic treatment, puromycin aminonuceloside (PAN, Sigma P7130) was added at a 10× concentration to 90 μl of cells. The positive control is PAN treatment without compound. The negative control is 100% DMSO diluted to the same factor as the compounds without PAN.
The plates are incubated at 37° C., 5% CO2 for 48 to 72 hours depending on the PAN concentration (i.e. lower concentrations of PAN required a longer incubation period). The medium is aspirated after plates are spun at 2400 rpm for 10 min at ambient temperature. 100 μl of 1×DPBS (without CaCl2, without MgCl2) is added to each well.
The MTS (Promega) is prepared under low lighting conditions by dissolving 4.0 g of MTS in 1.8 I of 1×DPBS. The solution is allowed to sit for 10 minutes and pH adjusted to 6.2. […] Absorbance is measured at 490 nm wavelength with a microplate reader.

A further assay deals with TNFa on macrophages. The assay can be described thus: Inhibition of TNFα release from stimulated macrophages. The class given is cell-based, mouse. The conditions noted are these: Mus musculus, Macrophage; LPS and IFN-γ stimulated primary macrophages, ELISA. How it is done: Peritoneal exudate macrophages were isolated by peritoneal lavage with ice-cold sterile physiological saline 24 hours after intraperitoneal injection of BALB/c mice with 0.5 mL of sterile Zymosan A (1 mg/0.5 mL 0.9% saline). […] Murine primary macrophage will get activated following incubation with LPS in the presence of sub-optimal doses of IFN-γ. […] TNF-αlevels in the supernatants from stimulated macrophages were determined with PharMingen's OptEIA TNF-α kit (PharMingen). The experiment was performed at room temperature, about 21° C., unless otherwise stated. The microwells (F8 MaxiSorp™ Loose/Nunc-Immuno Module; Gibco/BRL) were coated with 100 μl/well of capture antibody (at the recommended concentration) and incubated overnight at 4° C. […] Next, the solution was removed and the plates were washed 5× with wash buffer. The TNF-αanalysis was initiated by adding duplicate samples (100 μl/well) or standards (100 μl/well) in diluent buffer which were incubated for 2 h. The solution was removed and the plates washed 5× with wash buffer. Enzyme reagent (100 μl) containing biotinylated mouse TNF-αmonoclonal antibody and avidin-horseradish peroxidase conjugate (at concentrations recommended by the manufacturer) was added to each well. The plate was incubated for 1 hour, the solution removed, and the plates washed 7× with wash buffer. […] Colour development was terminated by adding 50 μl of 2N H2SO4. […] Peritoneal exudate macrophages were isolated by peritoneal lavage with ice-cold sterile physiological saline 24 hours after intraperitoneal injection of BALB/c mice with 0.3 ml of sterile zymosan A (1 mg/0.5 mL 0.9% saline). […] All treatments were replicated six times. Cells were incubated for an additional 24 hours, and cell free culture supernatants from each well were collected for NO and cytokine determination. The remaining cells were stained with crystal violet to determine effect of the compound on cell survival.
Background: An ELISA detects its analyte on a solid surface through an enzyme-linked reagent.

In a further assay the test system is ConA 1° splenocytes. As to the kind of experiment: Survival of ConA 1° splenocytes (cytotoxicity by MTS staining). The class given is cell-based, mouse. The conditions noted are these: Mus musculus, Splenocyte, ConA-stimulated splenocytes. How it is done:
The working concentration of ConA was […]. A 20× working concentration of Concanavalin A was […] was prepared using RPMI-5. The test compounds, dimethylsulfoxide (DMSO) negative vehicle control and staurosporine positive control were diluted twenty times using RPMI-5. Ten μL each of DMSO and staurosporine were combined with 180 μl of medium containing splenocytes in the wells, and 10 μl of 50 μg/ml ConA was immediately added. Medium without ConA was added to the control wells. […] The plates were incubated at 37° C. in 5% CO2 in humidified conditions overnight (18-24 hours) for INFγ.
(MTS). The MTS solution was made fresh and under low light. The electron coupling reagent phenazine methosulfate (PMS) was added at the time of the assay. Twenty μL of MTS solution per 100 μl of tissue culture medium was added to each well. The plates were incubated 37° C. for 4 hours for unstimulated and 18-24 ConA stimulated splenocytes. The absorbance was read at 490 nm wavelength. A kit available to do this assay is “CellTiter 96® AQ Kit AQueous Kit (G5421)” by Promega.

The subject of a further assay is PC3 Cells. As to the kind of experiment: Tumor cell migration assay. The class given is cell-based. The conditions noted are these: Homo sapiens, PC-3, 25 μM compound. Here is the method:
The invasion test system (BD Bioscience's BioCoat™ FluoroBlok™ Invasion System including BD BioCoat™ Matrigel™ Invasion Chambers with the fluorescence blocking membrane FluoroBlok™ 24-Multiwell Insert System™) is removed from the package from −20° C. storage and allowed to warm to ambient temperature. PBS is added to the interior of the inserts and they are allowed to rehydrate for 2 hours at 37° C. The medium is then removed and 450 μL cell suspensions of tumor cells (grown to 50-70% confluence, trypsinized, and resuspended in medium without serum at 1×10^6/mL) is added to the top chamber. Test compounds are added to the top chamber at 10× the desired final concentration in 50 μL volumes. DMSO acts as the control. […]
Data is expressed as fluorescence units (FU) from the sum of middle 25 areas per 24-well or as percentage of invasion inhibition by following formula: % of invasion inhibition=100−FU of compound treated cell invasion/FU of DMSO treated cell invasion*100.
Tumor cell migration assay was conducted in the similar way as described in Example 16 except that the plates used were constructed with only a porous membrane dividing a top and bottom chamber without the additional thin Matrigel™ layer on top of the membrane (BD Fluoroblock™ plates). The percent inhibition of migration was determined in the same way as illustrated in Example 16.

A further assay deals with ILK (Homo sapiens (Human), UniProt Q13418). As to the kind of experiment: Inhibition of ILK in vitro enzyme assay. The conditions noted are these: read-out: IC50 avg. value; recombinant ILK, [γ-32P]-ATP, 15 minutes at ambient temperature.
ILK, sequence (Q13418 whole entry): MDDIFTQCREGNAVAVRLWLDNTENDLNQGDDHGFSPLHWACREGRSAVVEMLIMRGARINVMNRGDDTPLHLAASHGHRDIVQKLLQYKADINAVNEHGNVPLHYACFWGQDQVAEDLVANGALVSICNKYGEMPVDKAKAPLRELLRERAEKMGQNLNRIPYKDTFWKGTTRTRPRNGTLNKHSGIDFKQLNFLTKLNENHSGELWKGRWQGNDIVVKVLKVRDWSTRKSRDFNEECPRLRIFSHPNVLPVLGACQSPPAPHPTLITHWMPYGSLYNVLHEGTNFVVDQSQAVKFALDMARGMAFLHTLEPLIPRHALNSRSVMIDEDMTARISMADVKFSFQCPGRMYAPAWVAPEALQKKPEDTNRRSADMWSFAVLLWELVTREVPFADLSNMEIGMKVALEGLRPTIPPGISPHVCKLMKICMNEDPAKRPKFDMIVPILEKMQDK
Another assay has as its system HUVEC. The conditions noted are these: HUVEC on Matrigel, VEGF 1 ng/mL, 5 hours. Here is the method:
Angiogenesis, the formation of new blood vessels from pre-existing endothelium, is a critical process involved in numerous physiological and pathological conditions. Disruption of this tightly regulated process has been implicated in both chronic inflammation and solid tumour growth. The Matrigel™ morphogenesis assay is an in vitro model used to mimic the process by which endothelial cells form capillaries in vivo. Human umbilical vein endothelial cells (HUVECs) were plated over matrigel, a complex mixture of solubilized basement membrane components, and cultured in serum poor medium with specific growth factors and in the presence of the test compound. […] After 5 hours of incubation in a 5% CO2-humidified atmosphere at 37° C., the three-dimensional organization of the cells (the capillary-like structures) was examined using an inverted photomicroscope. The cells were fixed with crystal violet (0.05% in 20% ethanol) and photographed using a digital camera. Qualitative analysis was accomplished by comparing the pattern, size and integrity of the vessels formed in the test wells with those of the VEGF control wells. Quantitative analysis was performed on the images collected using the Image-Pro Plus software program.

In another assay the test system is IL-12 on macrophages. The assay can be described thus: Inhibition of IL-12 release from stimulated macrophages. The class given is cell-based, mouse. The conditions noted are these: Mus musculus, Macrophage; LPS and IFN-γ stimulated primary macrophages, ELISA. Here is the method: Peritoneal exudate macrophages were isolated by peritoneal lavage with ice-cold sterile physiological saline 24 hours after intraperitoneal injection of BALB/c mice with 0.5 mL of sterile Zymosan A (1 mg/0.5 mL 0.9% saline). […] Murine primary macrophage are activated following incubation with LPS in the presence of sub-optimal doses of IFN-γ. Upon activation, macrophages participate actively in the onset of inflammation by releasing bioactive molecules that amplify the initial inflammatory response. […] Briefly, IL-12 levels in the supernatants from stimulated macrophages were determined with PharMingen's OptEIA™ ELISA set developed using an anti-mouse IL-12 antibody pair and mouse rIL-12 standard (PharMingen). Maxisorp™ F16 multiwell strips (Nunc, Roskilde, Denmark) were coated with anti-mouse IL-12 capture Ab (at recommended concentration) in 0.1 M NaHCO3, pH 9.5, 100 μL/well, overnight at 4° C. […] Plates were washed 3× with PBST and duplicate samples (100 μL/well) or standards (100 μL/well) in diluent buffer were incubated for 2 h. Plates were washed five times with PBST and incubated with biotinylated anti-mouse IL-12 and avidin-horseradish peroxidase (HRP) conjugate (at concentrations recommended by the manufacturer) for 1 h. […] Peritoneal exudate macrophages were isolated by peritoneal lavage with ice-cold sterile physiological saline 24 hours after intraperitoneal injection of BALB/c mice with 0.3 ml of sterile zymosan A (1 mg/0.5 mL 0.9% saline). […] All treatments were replicated six times. Cells were incubated for an additional 24 hours, and cell free culture supernatants from each well were collected for NO and cytokine determination. The remaining cells were stained with crystal violet to determine effect of the compound on cell survival.

The subject of another assay is macrophages. As to the kind of experiment: Survival of macrophages. The conditions noted are these: Mus musculus, Macrophage; stimulated primary macrophages. The class given is cell-based, mouse. Here is the method:
Peritoneal exudate macrophages were isolated by peritoneal lavage with ice-cold sterile physiological saline 24 hours after intraperitoneal injection of BALB/c mice with 0.3 ml of sterile zymosan A (1 mg/0.5 mL 0.9% saline). […] 1.5×10^5 cells/well were seeded in 96-well plates and followed by 3 hour incubation at 37° C. with 5% CO2 (macrophages were allowed to attach) cells were stimulated with LPS ([…]/mL) and IFN-γ (100 U/mL) in the absence or presence of the test compounds. All treatments were replicated six times. Cells were incubated for an additional 24 hours, and cell free culture supernatants from each well were collected for NO and cytokine determination. The remaining cells were stained with crystal violet to determine effect of the compound on cell survival.

Structures are written as SMILES.

Source text for ILK: The target ILK is a full-length recombinant protein expressed in Hi5 insect cells by baculovirus infection. Recombinant ILK protein was expressed using cultured insect cells and a baculovirus expression system. […] This ILK transfer construct was then co-transfected with BaculoGold™ DNA (Pharmingen) into Sf9 insect cells (Invitrogen) and a high titre preparation of GST-ILK recombinant baculovirus was produced by amplification in Sf9 cells. Liter scale expression of GST-ILK recombinant protein was done in 1000 mL spinner flasks (Bellco) by infection of Hi5 insect cells (Invitrogen) grown in Ex-Cell™ 400 serum free media (JRH Biosciences) at a multiplicity of infection of approximately 5. […]
From each assay mixture, 10 μL of assay mixture was spotted onto Millipore Multiscreen-PH™ opaque plates and washed twice for 10 minutes in 1% phosphoric acid. The plates were dried at 40° C. for 30 minutes, then substrate-phosphate complexes were quantitated by scintillation counting. […]
Inhibition of ILK by the test compounds is measured by scintillation counting of the incorporation of radioactive phosphate onto a specific substrate which is immobilized onto a filter paper at the end of the assay. […]
The “baseline activity” is the amount of radioactivity incorporated in the absence of a target inhibitor.

With `CNS(=O)(=O)c1ccc2nc(-c3c(N)n[nH]c3C)sc2c1` [2-(3-Amino-5-methyl-1H-pyrazol-4-yl)benzothiazole-6-sulfonic acid methylamide], in the assay on K5P5 podocyte cell line, half-maximal inhibition (IC50) required 12.5 µM.

For `Cc1n[nH]c(N)c1-c1nc2cc(F)c(S(N)(=O)=O)cc2s1` [2-(5-Amino-3-methyl-1H-pyrazol-4-yl)-5-fluoro-benzothiazole-6-sulfonic acid amide], the “% Survival” value with K5P5 podocyte cell line (@ 12.5 μM) is 30%. The IC50 – broadly, the point on the concentration scale where inhibition reaches its midpoint – in the assay with TNFa on macrophages came out at 0.9 µM.

`Cc1n[nH]c(N)c1-c1nc2cc(F)c(S(=O)(=O)NCCO)cc2s1` [2-(5-Amino-3-methyl-1H-pyrazol-4-yl)-5-fluorobenzothiazole-6-sulfonic acid (2-hydroxy-ethyl)-amide] gave an IC50 in the assay with ConA 1° splenocytes above 25 µM. Also, the “% Survival” value with K5P5 podocyte cell line (@ 25 μM) turned out to be 30%.

Regarding `Oc1ccc(-c2n[nH]cc2-c2nc3ccccc3s2)c(O)c1` [4-(4-Benzothiazol-2-yl-1H-pyrazol-3-yl)-benzene-1,3-diol], the inhibition (usually the percentage by which the read-out fell short of the control) at 25 µM with PC3 Cells amounted to 44.8%. For the same molecule, at ILK, the IC50 turned out to be 3.3 µM.

Turning to `COc1cc2sc(-c3c(-c4ccco4)n[nH]c3N)nc2cc1F` [4-(5-Fluoro-6-methoxybenzothiazol-2-yl)-5-furan-2-yl-2H-pyrazol-3-ylamine], the midpoint of inhibition in the assay on K5P5 podocyte cell line, the IC50, lay at 2.5 µM.

Regarding `Cc1n[nH]c(N)c1-c1nc2ccc(CN(C)C)cc2s1` [4-(6-Dimethylaminomethylbenzothiazol-2-yl)-5-methyl-2H-pyrazol-3-ylamine], in the assay on K5P5 podocyte cell line, 12.5 µM corresponded to half-maximal inhibition (IC50).

As for `Nc1n[nH]c(N)c1-c1nc2ccccc2s1` [4-Benzothiazol-2-yl-1H-pyrazole-3,5-diamine], the “% Inhibition of angiogenesis” value in the assay on HUVEC amounted to 32%.

For the molecule `Cc1[nH]nc(N)c1-c1nc2ccccc2s1` [4-Benzothiazol-2-yl-5-methyl-1H-pyrazol-3-ylamine], the “% Inhibition of angiogenesis” value with HUVEC stood at 64%.

With `CSc1[nH]nc(N)c1-c1nc2ccccc2s1` [4-Benzothiazol-2-yl-5-methylsulfanyl-1H-pyrazol-3-ylamine], the “% Inhibition of angiogenesis” value with HUVEC turned out to be 84%.

For `Nc1[nH]nc(-c2ccncc2)c1-c1nc2ccccc2s1` [4-Benzothiazol-2-yl-5-pyridin-4-yl-2H-pyrazol-3-ylamine], the IC50 in the assay with ConA 1° splenocytes, in the assay with IL-12 on macrophages and with macrophages was above 25 µM in each case.

For `Nc1n[nH]c(N2CCCC2)c1-c1nc2ccccc2s1` [4-Benzothiazol-2-yl-5-pyrrolidin-1-yl-1H-pyrazol-3-ylamine], in the assay on HUVEC, the “% Inhibition of angiogenesis” value was 50%.
